Patent US11247965B2 (VenatoRx Pharmaceuticals, Inc., priority 2017, dated 2022)

What was measured:
[1] = In vitro cytotoxicity, MTT cell viability assay in HepG2 cells; assay type: cell-based; conditions: human, Cytotoxicity CC50
Procedure, shortened: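 Viability measured by MTT conversion, absorbance at 492 nm, as percent of vehicle-treated wells. Compounds spanned 30 μM to 1.0 nM in half-log steps over a 7-day exposure of parental HepG2 cells; CC50 derived by 4-parameter curve fit.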

[2] = tested on: HBV replication in HepAD38 cells; test: Anti-HBV activity in HepAD38 cells, extracellular HBV DNA by QPCR; assay type: cell-based, HBV (genotype D, serotype ayw); conditions: Hepatitis B virus, HePAD38, 168 h, read-out: Anti-HBV EC50, HepAD38 cells, extracellular HBV DNA by QPCR, 7 days of incubation
Procedure, shortened: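 Seven-day compound exposure (30 μM down to 10 nM, half-log steps) after tetracycline withdrawal induced HBV replication in HepAD38 cells. Extracellular viral DNA measured by QPCR (copies/mL via standard curve), normalised to DMSO wells; EC50 from 4-parameter non-linear regression.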

| SMILES | CC50 at 7 days [1] [µM] | EC50 [2] [µM] |
| --- | --- | --- |
| Cc1cc(NC(=O)c2ccc(F)c(C(F)(F)C(=O)N3C4CC[C@@H]3C[C@@H](C(=O)NCCO)C4)c2)ccc1F [Example 258, (1R,3s,5S)-8-(2,2-difluoro-2-(2-fluoro-5-((4-fluoro-3-methylphenyl)carbamoyl)phenyl)acetyl)-N-(2-hydroxyethyl)-8-azabicyclo[3.2.1]octane-3-carboxamide] | > 30 | < 5 |
| Cc1cc(NC(=O)c2ccc(F)c(C(F)(F)C(=O)N3C4CC[C@@H]3C[C@@H](C(=O)O)C4)c2)ccc1F [Example 259, (1R,3s,5S)-8-(2,2-difluoro-2-(2-fluoro-5-((4-fluoro-3-methylphenyl)carbamoyl)phenyl)acetyl)-8-azabicyclo[3.2.1]octane-3-carboxylic acid] | > 30 | < 5 |
| Cc1cc(NC(=O)c2ccc(F)c(C(F)(F)C(=O)N3C4CC[C@@H]3C[C@@H](C(=O)N3CCOCC3)C4)c2)ccc1F [Example 260, 3-(1,1-difluoro-2-((1R,3s,5S)-3-(morpholine-4-carbonyl)-8-azabicyclo[3.2.1]octan-8-yl)-2-oxoethyl)-4-fluoro-N-(4-fluoro-3-methylphenyl)benzamide] | > 30 | < 5 |
| Cc1cc(NC(=O)c2ccc(F)c(C(F)(F)C(=O)N3C4CC[C@@H]3C[C@@H](NS(C)(=O)=O)C4)c2)ccc1F [Example 261, 3-(1,1-difluoro-2-((1R,3s,5S)-3-(methylsulfonamido)-8-azabicyclo[3.2.1]octan-8-yl)-2-oxoethyl)-4-fluoro-N-(4-fluoro-3-methylphenyl)benzamide] | < 5 | < 5 |
| Cc1cc(NC(=O)c2ccc(F)c(C(F)(F)C(=O)N3C4CC[C@@H]3C[C@H](NS(C)(=O)=O)C4)c2)ccc1F [Example 262, 3-(1,1-difluoro-2-((1R,3r,5S)-3-(methylsulfonamido)-8-azabicyclo[3.2.1]octan-8-yl)-2-oxoethyl)-4-fluoro-N-(4-fluoro-3-methylphenyl)benzamide] | 5 to 30 | < 5 |
| CC(=O)N[C@@H]1CC2CC[C@H](C1)N2C(=O)C(F)(F)c1cc(C(=O)Nc2ccc(F)c(C)c2)ccc1F [Example 263, 3-(2-((1R,3r,5S)-3-acetamido-8-azabicyclo[3.2.1]octan-8-yl)-1,1-difluoro-2-oxoethyl)-4-fluoro-N-(4-fluoro-3-methylphenyl)benzamide] | 5 to 30 | < 5 |
| Cc1cc(NC(=O)c2ccc(F)c(C(F)(F)C(=O)N3CCN4C(=O)NCC4C3)c2)ccc1F (stereo not shown) [Example 264, 3-(1,1-difluoro-2-oxo-2-(3-oxohexahydroimidazo[1,5-a]pyrazin-7(1H)-yl)ethyl)-4-fluoro-N-(4-fluoro-3-methylphenyl)benzamide] | > 30 | < 5 |
| Cc1cc(NC(=O)c2ccc(F)c(C(F)(F)C(=O)N3[C@H]4CC[C@@H]3c3cn[nH]c3C4)c2)ccc1F [Example 265, 3-(1,1-difluoro-2-((4R,7S)-1,4,5,6,7,8-hexahydro-4,7-epiminocyclohepta[c]pyrazol-9-yl)-2-oxoethyl)-4-fluoro-N-(4-fluoro-3-methylphenyl)benzamide] | 5 to 30 | < 5 |
| Cc1cc(NC(=O)c2ccc(F)c(C(F)(F)C(=O)N3[C@@H]4COC[C@H]3CN(S(N)(=O)=O)C4)c2)ccc1F [Example 266, 3-(1,1-difluoro-2-oxo-2-((1R,5S)-7-sulfamoyl-3-oxa-7,9-diazabicyclo[3.3.1]nonan-9-yl)ethyl)-4-fluoro-N-(4-fluoro-3-methylphenyl)benzamide] | > 30 | < 5 |
| Cc1cc(NC(=O)c2ccc(F)c(C(F)(F)C(=O)N3CCC(N4CCOCC4)CC3)c2)ccc1F [Example 267, 3-(1,1-difluoro-2-(4-morpholinopiperidin-1-yl)-2-oxoethyl)-4-fluoro-N-(4-fluoro-3-methylphenyl)benzamide] | 5 to 30 | 5 to 30 |
| Cc1cc(NC(=O)c2ccnc(C(F)(F)C(=O)N3CCc4nc(N)sc4C3)c2)ccc1F [Example 268, 2-(2-(2-amino-6,7-dihydrothiazolo[5,4-c]pyridin-5(4H)-yl)-1,1-difluoro-2-oxoethyl)-N-(4-fluoro-3-methylphenyl)isonicotinamide] | > 30 | 5 to 30 |
| Cc1cc(NC(=O)c2ccc(F)c(C(F)(F)C(=O)N3CCC4(CC3)NC(=O)NC4=O)c2)ccc1F [Example 269, 3-(2-(2,4-dioxo-1,3,8-triazaspiro[4.5]decan-8-yl)-1,1-difluoro-2-oxoethyl)-4-fluoro-N-(4-fluoro-3-methylphenyl)benzamide] | > 30 | < 5 |
| Cc1cc(NC(=O)c2ccc(F)c(C(F)(F)C(=O)N3CCc4[nH]nnc4C3)c2)ccc1F [Example 270, 3-(1,1-difluoro-2-oxo-2-(1,4,6,7-tetrahydro-5H-[1,2,3]-triazolo[4,5-c]pyridin-5-yl)ethyl)-4-fluoro-N-(4-fluoro-3-methylphenyl)benzamide] | 5 to 30 | < 5 |
| Cc1cc(NC(=O)c2ccc(F)c(C(F)(F)C(=O)NC34CC5CC(CC3C5)C4)c2)ccc1F [Example 271, 3-(1,1-difluoro-2-(((2R,3as,5S,6as)-hexahydro-2,5-methanopentalen-3a(1H)-yl)amino)-2-oxoethyl)-4-fluoro-N-(4-fluoro-3-methylphenyl)benzamide] | 5 to 30 | 5 to 30 |
| Cc1cc(NC(=O)c2ccc(F)c(C(F)(F)C(=O)NC34CC5CC(CC(O)(C5)C3)C4)c2)ccc1F [Example 272, 3-(1,1-difluoro-2-(((1r,3s,5R,7S)-3-hydroxyadamantan-1-yl)amino)-2-oxoethyl)-4-fluoro-N-(4-fluoro-3-methylphenyl)benzamide] | 5 to 30 | 5 to 30 |
| Cc1cc(NC(=O)c2ccc(F)c(C(F)(F)C(=O)N3C4COCC3CC(=NO)C4)c2)ccc1F [Example 273, 3-(1,1-difluoro-2-(7-(hydroxyimino)-3-oxa-9-azabicyclo[3.3.1]nonan-9-yl)-2-oxoethyl)-4-fluoro-N-(4-fluoro-3-methylphenyl)benzamide] | 5 to 30 | < 5 |
| Cc1cc(NC(=O)c2ccc(F)c(C(F)(F)C(=O)N3[C@@H]4CC[C@H]3CC(O)(CN)C4)c2)ccc1F (stereo partly drawn) [Example 276, 3-(2-((1R,5S)-3-(aminomethyl)-3-hydroxy-8-azabicyclo[3.2.1]octan-8-yl)-1,1-difluoro-2-oxoethyl)-4-fluoro-N-(4-fluoro-3-methylphenyl)benzamide] | 5 to 30 | < 5 |
| CO[C@H]1CC2CC[C@H](C1)N2C(=O)C(F)(F)c1cc(C(=O)Nc2ccc(F)c(C)c2)ccc1F [Example 277, 3-(1,1-difluoro-2-((1R,3s,5S)-3-methoxy-8-azabicyclo[3.2.1]octan-8-yl)-2-oxoethyl)-4-fluoro-N-(4-fluoro-3-methylphenyl)benzamide] | 5 to 30 | < 5 |
| Cc1cc(NC(=O)c2ccc(F)c(C(F)(F)C(=O)N3CCC(F)(F)CC3)c2)ccc1F [Example 278, 3-(2-(4,4-difluoropiperidin-1-yl)-1,1-difluoro-2-oxoethyl)-4-fluoro-N-(4-fluoro-3-methylphenyl)benzamide] | > 30 | 5 to 30 |
| Nc1nc2c(s1)CN(C(=O)C(F)(F)c1cc(C(=O)Nc3ccc(F)c(Cl)c3)ccc1F)CC2 [Example 279, 3-(2-(2-amino-6,7-dihydrothiazolo[5,4-c]pyridin-5(4H)-yl)-1,1-difluoro-2-oxoethyl)-N-(3-chloro-4-fluorophenyl)-4-fluorobenzamide] | 5 to 30 | < 5 |
| Cc1cc(NC(=O)c2ccc(F)c(C(F)(F)C(=O)N3C[C@H]4CC[C@@H](C3)C4=O)c2)ccc1F [Example 280, 3-(1,1-difluoro-2-oxo-2-((1R,5S)-8-oxo-3-azabicyclo[3.2.1]octan-3-yl)ethyl)-4-fluoro-N-(4-fluoro-3-methylphenyl)benzamide] | 5 to 30 | < 5 |
| Cc1cc(NC(=O)c2ccc(F)c(C(F)(F)C(=O)N3CC4CCC(C3)C4O)c2)ccc1F [Example 281, 3-(1,1-difluoro-2-((1R,5S,8s)-8-hydroxy-3-azabicyclo[3.2.1]octan-3-yl)-2-oxoethyl)-4-fluoro-N-(4-fluoro-3-methylphenyl)benzamide] | 5 to 30 | < 5 |
| Cc1cc(NC(=O)c2ccnc(C(F)(F)C(=O)N3[C@@H]4CC[C@H]3C[C@H](C(=O)O)C4)c2)ccc1F [Example 282, (1R,3s,5S)-8-(2,2-difluoro-2-(4-((4-fluoro-3-methylphenyl)carbamoyl)pyridin-2-yl)acetyl)-8-azabicyclo[3.2.1]octane-3-carboxylic acid] | > 30 | 5 to 30 |
| Cc1cc(NC(=O)c2ccc(F)c(C(F)(F)C(=O)N3CC4CNCC4C3)c2)ccc1F (stereo not shown) [Example 283, 3-(1,1-difluoro-2-(hexahydropyrrolo[3,4-c]pyrrol-2(1H)-yl)-2-oxoethyl)-4-fluoro-N-(4-fluoro-3-methylphenyl)benzamide] | 5 to 30 | < 5 |
| CNC(=O)NCC(=O)N1CC2CN(C(=O)C(F)(F)c3cc(C(=O)Nc4ccc(F)c(C)c4)ccc3F)CC2C1 (stereo not shown) [Example 284, 3-(1,1-difluoro-2-(5-((methylcarbamoyl)glycyl)hexahydropyrrolo[3,4-c]pyrrol-2(1H)-yl)-2-oxoethyl)-4-fluoro-N-(4-fluoro-3-methylphenyl)benzamide] | > 30 | 5 to 30 |
| Cc1cc(NC(=O)c2ccc(F)c(C(F)(F)C(=O)N3CCC(N)C(C)(C)C3)c2)ccc1F (stereo not shown) [Example 285, 3-(2-(4-amino-3,3-dimethylpiperidin-1-yl)-1,1-difluoro-2-oxoethyl)-4-fluoro-N-(4-fluoro-3-methylphenyl)benzamide] | 5 to 30 | < 5 |
